Results published in publication PMC8348983 (International Journal of Molecular Sciences, 2021).
Where two headings read alike, the source gives them in different places.

Columns and labels:
Format in all cases: biochemical
[1] = molecular target: T1, human plasma BChE (Homo sapiens, UniProt P06276); test: biochemical
T1 construct: was used as a source of BChE and was prepared from heparinized human blood; from tissue; host or cells: human plasma from heparinized human blood

[2] = molecular target: T2, hBuChE (Homo sapiens, UniProt P06276); test: Kinetic study of hBuChE inhibition
T2 construct: was used as a source of BChE and was prepared from heparinized human blood; from tissue; host or cells: human plasma from heparinized human blood
Protocol: Compound 6, the derivative with the most robust inhibitory activity, was subjected to enzyme kinetics analysis to determine the mode of hBuChE inhibition. Inhibition kinetics were elucidated from velocity curves that were measured at several concentrations of substrate butyrylthiocholine and test compound. The type of enzyme inhibition and corresponding kinetic parameters (Ki and Ki′) were determined by nonlinear regression analysis. Results for each type of model of inhibition (competitive, non-competitive, uncompetitive, and mixed) were compared by the sum-of-squares F-test. […].
Kinetic studies employed the same procedure that was previously described. Supplementary Materials provides details of this assay.
Biological assays in detail hAChE and hBuChE Inhibition Assay
The inhibitory activities of prepared compounds and standards against human recombinant AChE (E.C.
3.1.1.7) and human plasma BChE (E.C. 3.1.1.8) were determined using modified Ellman’s method […]
cholinesterase activity). Human recombinant AChE, phosphate buffer (PB, pH = 7.4), 5,5’ -dithio-bis(2-nitrobenzoic) acid (Ellman’s reagent, DTNB), acetylthiocholine (ATCh), butyrylthiocholine (BTCh), and other used compounds were purchased from Sigma-Aldrich (Prague, Czech Republic). […]
The solutions of she corresponding cholinesterase in PB were prepared up to the final activity 0.002 U/µL. […] The increase of absorbance was measured at 412 nm using Multimode microplate reader Synergy 2 (BioTek Inc., Winooski, VT, USA). For the calculation of the resulting measured activity (the percentage of inhibition I) following formula was used: […]
where ΔAi indicates absorbance change provided by adequate enzyme exposed to corresponding inhibitor and ΔA0 indicates absorbance change when a solution of PB was added instead of a solution of inhibitor. […]
The kinetic study hBuChE was performed by using above mentioned modified Ellman’s method. The values of Vmax and Km of the Michaelis-Menten kinetics as well as the values of Ki and Ki’ were calculated by nonlinear regression from the substrate velocity curves. […]

[3] = molecular target: T3, MAO-A (Homo sapiens, UniProt P21397); test: MAO-A inhibition assay
T3 construct: purchased Merck, Germany
T3 sequence (P21397 1-527): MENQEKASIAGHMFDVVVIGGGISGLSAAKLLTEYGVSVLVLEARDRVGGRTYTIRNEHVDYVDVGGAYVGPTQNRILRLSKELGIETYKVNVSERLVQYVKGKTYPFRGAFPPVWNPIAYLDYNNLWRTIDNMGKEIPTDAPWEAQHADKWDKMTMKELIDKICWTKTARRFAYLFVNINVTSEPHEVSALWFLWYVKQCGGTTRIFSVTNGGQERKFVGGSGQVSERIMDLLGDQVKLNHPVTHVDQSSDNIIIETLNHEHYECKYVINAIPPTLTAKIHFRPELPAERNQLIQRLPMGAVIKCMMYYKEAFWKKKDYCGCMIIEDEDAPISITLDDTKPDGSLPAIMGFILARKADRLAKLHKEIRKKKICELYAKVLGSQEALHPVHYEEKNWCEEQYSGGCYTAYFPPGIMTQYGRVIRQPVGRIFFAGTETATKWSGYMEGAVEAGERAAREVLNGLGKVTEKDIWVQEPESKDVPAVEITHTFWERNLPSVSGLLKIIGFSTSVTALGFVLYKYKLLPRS
Protocol: Since monoamine oxidase (MAO; EC 1.4.3.4) inhibitors are considered as neuroprotective agents, compound 6 was screened at two concentrations (1 and 10 µM) for its inhibition potential against both isoforms of human MAOs. […]; MAO inhibition assay was performed as previously described. Supplementary Materials provides details of this assay. […]
The reaction mixture contains 2.5mg/mL MAO -A or 6.25mg/mLMAO-B enzyme (Merck, Germany) and inhibitor in final concentrations of […] in 50 mM potassiumphosphate buffer with 20% (v/v) glycerol (pH 7.5). […] The sample was then centrifuged (16.500 g) for10 min.The deamination product of kynuramine formed during the enzymatic reaction 4-hydroxyquinoline (4-HQ) was determined by UHPLC-MS on a Zorbax RRHD Eclipse plus C18 column (2.1 mm x 50 mm, […]) (Agilent Technologies, USA), by using a 6470 Series Triple Quadrupole mass spectrometer (Agilent Technologies, USA) as detector with electrospray ionisation – positive ion mode. […]
0.1% formic acid in water; (B) 0.1% formic acid in acetonitrile. IC 50of individual compounds were determined by nonlinear regression usingGraphPad Prism 8.0 (GraphPad Software, USA).

T1 sequence (P06276 29-602): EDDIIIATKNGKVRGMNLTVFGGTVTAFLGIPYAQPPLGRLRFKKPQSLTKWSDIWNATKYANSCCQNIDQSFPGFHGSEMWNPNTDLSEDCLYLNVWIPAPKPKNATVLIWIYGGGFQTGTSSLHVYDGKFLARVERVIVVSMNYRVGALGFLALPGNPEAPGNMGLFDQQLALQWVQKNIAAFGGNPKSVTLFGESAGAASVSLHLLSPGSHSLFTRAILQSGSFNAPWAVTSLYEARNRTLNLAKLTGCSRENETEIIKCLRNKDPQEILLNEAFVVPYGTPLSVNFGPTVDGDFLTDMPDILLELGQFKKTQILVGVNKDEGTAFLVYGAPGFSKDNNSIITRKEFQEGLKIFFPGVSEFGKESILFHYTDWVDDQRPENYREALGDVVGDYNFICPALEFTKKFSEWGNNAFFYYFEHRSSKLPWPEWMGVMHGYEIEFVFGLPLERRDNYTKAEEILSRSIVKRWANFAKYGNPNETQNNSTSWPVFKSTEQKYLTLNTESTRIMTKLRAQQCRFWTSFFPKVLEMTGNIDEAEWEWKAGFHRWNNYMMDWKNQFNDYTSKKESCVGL

C=CCOc1ccc(CCN(CC=C)Cc2ccc(OC)c(OCc3ccccc3)c2)cc1 [Compound 6, N-allyl-N-(3-benzyloxy-4-methoxybenzyl)-2-(4-allyloxyphenyl)ethan-1-amine]
IC50 ([1]; mean ± SEM of three independent measurements, each in triplicate, read-out: IC50, hBuChE ± SEM): 70 ± 10 nM
IC50 ([1]; read-out: IC50, hBuChE): 72 nM
inhibition at 100 µM ([1]; tested at 100 µM compound concentration, read-out: % Inhibition hBuChE ± SEM): 98.6 ± 0.9%
Ki′ ([2]; hBuChE, enzyme-substrate complex, nonlinear regression): 347 ± 79 nM
Ki ([2]; hBuChE, substrate butyrylthiocholine, nonlinear regression): 60.3 ± 11.6 nM
type of hBuChE inhibition ([2]; sum-of-squares F-test, p < 0.05, Lineweaver–Burk plot): mixed type of inhibition
IC50 [3]: > 10000 nM
residual activity of MAO-A ([3]; 1 and 10 µM): higher than 68%
